Laboratory results taken from patent US20240365781A1, “SYNERGISTICALLY EFFECTIVE HERBICIDE COMPOSITION COMPRISING PELARGONIC ACID AND FLAZASULFURON” (Belchim Crop Protection NV, priority 2017, published 2024).

Columns and labels:
Test in all cases: post-emergence field trial under rows of apple trees, 150-200 L water/ha (Examples 10-12)
Format in all cases: in vivo
[1] = test system: Poa annua
Experimental: (§1) Herbicidal activity was determined by performing a post-emergence test. […] The corresponding mixture was in the form of a spray solution. Besides, spray solutions of individual compositions comprising pelargonic acid or flazasulfuron were used.
(§2) The spray solution was applied on plants of unwanted vegetation present on fields where perennial crops were grown.
(§3) After 5 to 88 days after application of the spray solution, the degree of damage to the unwanted vegetation is rated in % of plants of unwanted vegetation that were killed. Tests were performed on test fields (field trials).

[2] = test system: Senecio vulgaris
Experimental: as §1, §2, §3

[3] = test system: Setaria viridis
Experimental: as §1, §2, §3

[4] = test system: Taraxacum officinalis
Experimental: as §1, §2, §3

[5] = test system: Trifolium repens
Experimental: as §1, §2, §3

[6] = test system: Veronica persicae
Experimental: as §1, §2, §3

SMILES: CCCCCCCCC(=O)O [Pelargonic acid, nonanoic acid]
- herbicidal effect (%) ([1]; Poa annua/57 d, 10880 g of active compound/ha): 0%
- herbicidal effect (%) ([1]; Poa annua/78 d, 5440 g of active compound/ha): 0%
- herbicidal effect (%) ([1]; Poa annua/78 d, 8160 g of active compound/ha): 0%
- herbicidal effect (%) ([1]; Poa annua/78 d, 10880 g of active compound/ha): 1%
- herbicidal effect (%) ([2]; Senecio vulgaris/6 d, 5440 g of active compound/ha): 26%
- herbicidal effect (%) ([2]; Senecio vulgaris/6 d, 8160 g of active compound/ha): 29%
- herbicidal effect (%) ([2]; Senecio vulgaris/6 d, 10880 g of active compound/ha): 29%
- herbicidal effect (%) ([2]; Senecio vulgaris/28 d, 5440 g of active compound/ha): 9%
- herbicidal effect (%) ([2]; Senecio vulgaris/28 d, 10880 g of active compound/ha): 11%
- herbicidal effect (%) ([2]; Senecio vulgaris/58 d, 10880 g of active compound/ha): 33%
- herbicidal effect (%) ([3]; Setaria viridis/6 d, 5440 g of active compound/ha): 13%
- herbicidal effect (%) ([3]; Setaria viridis/6 d, 8160 g of active compound/ha): 35%
- herbicidal effect (%) ([3]; Setaria viridis/6 d, 10880 g of active compound/ha): 40%
- herbicidal effect (%) ([3]; Setaria viridis/16 d, 5440 g of active compound/ha): 43%
- herbicidal effect (%) ([3]; Setaria viridis/16 d, 8160 g of active compound/ha): 45%
- herbicidal effect (%) ([3]; Setaria viridis/16 d, 10880 g of active compound/ha): 48%
- herbicidal effect (%) ([3]; Setaria viridis/30 d, 5440 g of active compound/ha): 53%
- herbicidal effect (%) ([3]; Setaria viridis/30 d, 8160 g of active compound/ha): 53%
- herbicidal effect (%) ([3]; Setaria viridis/30 d, 10880 g of active compound/ha): 53%
- herbicidal effect (%) ([3]; Setaria viridis/57 d, 5440 g of active compound/ha): 0%
- herbicidal effect (%) ([3]; Setaria viridis/57 d, 8160 g of active compound/ha): 0%
- herbicidal effect (%) ([3]; Setaria viridis/57 d, 10880 g of active compound/ha): 0%
- herbicidal effect (%) ([3]; Setaria viridis/78 d, 5440 g of active compound/ha): 0%
- herbicidal effect (%) ([3]; Setaria viridis/78 d, 8160 g of active compound/ha): 0%
- herbicidal effect (%) ([3]; Setaria viridis/78 d, 10880 g of active compound/ha): 0%
- herbicidal effect (%) ([4]; Taraxacum officinalis/5 d, 5440 g of active compound/ha): 11%
- herbicidal effect (%) ([4]; Taraxacum officinalis/18 d, 5440 g of active compound/ha): 0%
- herbicidal effect (%) ([4]; Taraxacum officinalis/18 d, 8160 g of active compound/ha): 0%
- herbicidal effect (%) ([4]; Taraxacum officinalis/18 d, 10880 g of active compound/ha): 9%
- herbicidal effect (%) ([4]; Taraxacum officinalis/32 d, 5440 g of active compound/ha): 0%
- herbicidal effect (%) ([4]; Taraxacum officinalis/32 d, 8160 g of active compound/ha): 0%
- herbicidal effect (%) ([4]; Taraxacum officinalis/32 d, 10880 g of active compound/ha): 0%
- herbicidal effect (%) ([4]; Taraxacum officinalis/61 d, 5440 g of active compound/ha): 0%
- herbicidal effect (%) ([4]; Taraxacum officinalis/61 d, 8160 g of active compound/ha): 0%
- herbicidal effect (%) ([4]; Taraxacum officinalis/61 d, 10880 g of active compound/ha): 0%
- herbicidal effect (%) ([4]; Taraxacum officinalis/88 d, 5440 g of active compound/ha): 0%
- herbicidal effect (%) ([4]; Taraxacum officinalis/88 d, 8160 g of active compound/ha): 0%
- herbicidal effect (%) ([4]; Taraxacum officinalis/88 d, 10880 g of active compound/ha): 0%
- herbicidal effect (%) ([5]; Trifolium repens/7 d, 5440 g of active compound/ha): 59%
- herbicidal effect (%) ([5]; Trifolium repens/7 d, 8160 g of active compound/ha): 73%
- herbicidal effect (%) ([5]; Trifolium repens/7 d, 10880 g of active compound/ha): 75%
- herbicidal effect (%) ([5]; Trifolium repens/16 d, 5440 g of active compound/ha): 9%
- herbicidal effect (%) ([5]; Trifolium repens/16 d, 8160 g of active compound/ha): 13%
- herbicidal effect (%) ([5]; Trifolium repens/16 d, 10880 g of active compound/ha): 23%
- herbicidal effect (%) ([5]; Trifolium repens/26 d, 5440 g of active compound/ha): 0%
- herbicidal effect (%) ([5]; Trifolium repens/26 d, 8160 g of active compound/ha): 0%
- herbicidal effect (%) ([5]; Trifolium repens/26 d, 10880 g of active compound/ha): 0%
- herbicidal effect (%) ([5]; Trifolium repens/59 d, 5440 g of active compound/ha): 0%
- herbicidal effect (%) ([5]; Trifolium repens/59 d, 8160 g of active compound/ha): 0%
- herbicidal effect (%) ([5]; Trifolium repens/59 d, 10880 g of active compound/ha): 0%
- herbicidal effect (%) ([6]; Veronica persicae/7 d, 5440 g of active compound/ha): 56%
- herbicidal effect (%) ([6]; Veronica persicae/7 d, 8160 g of active compound/ha): 70%
- herbicidal effect (%) ([6]; Veronica persicae/7 d, 10880 g of active compound/ha): 73%
- herbicidal effect (%) ([6]; Veronica persicae/16 d, 5440 g of active compound/ha): 30%
- herbicidal effect (%) ([6]; Veronica persicae/16 d, 8160 g of active compound/ha): 48%
- herbicidal effect (%) ([6]; Veronica persicae/16 d, 10880 g of active compound/ha): 45%
- herbicidal effect (%) ([6]; Veronica persicae/26 d, 5440 g of active compound/ha): 0%
- herbicidal effect (%) ([6]; Veronica persicae/26 d, 8160 g of active compound/ha): 0%
- herbicidal effect (%) ([6]; Veronica persicae/26 d, 10880 g of active compound/ha): 0%
- herbicidal effect (%) ([6]; Veronica persicae/59 d, 5440 g of active compound/ha): 0%
- herbicidal effect (%) ([6]; Veronica persicae/59 d, 8160 g of active compound/ha): 0%
- herbicidal effect (%) ([6]; Veronica persicae/59 d, 10880 g of active compound/ha): 0%
